US20160045482A1, “UREIDO-PYRAZOLE DERIVATIVES” (Respivert Limited, priority 2010, published 2016)

Key:
HRV16 [1] = test: HRV-16 infection, assessment of virus load (TCID50) in MRC5 cells; assay type: cell-based, human rhinovirus 16; conditions: HRV16 0.1 MOI, 3 days
Method: Human rhinovirus RV16 (HRV16) was obtained from the American Type Culture Collection (Manassas, Va.). Viral stocks were generated by infecting Hela cells with HRV until 80% of the cells were cytopathic. MRC5 cells (human lung fibroblast, ATCC) were infected at 0.1 MOI (multiplicity of infection of 0.1) of HRV16 and incubated for 1 hr at 33° C. with gentle shaking to stimulate adsorption. The cells were then washed with PBS, fresh media (DMEM-5% FCS) was added and the cells were incubated for a further 72 hr. Supernatant (20 μL) was collected and 10-fold serial dilutions were prepared with DMEM containing 1% FCS. All titrations were performed by infecting confluent Hela cell monolayers with serially diluted supernatant (10^−1-10^−5) and then the cytopathic effect at each dilution 3 days after infection assessed by visual inspection. The cells were then stained with Crystal Violet for confirmation. The amount of virus required to infect 50% of Hela cells was calculated in each treatment as TCID50 (50% tissue culture infectious dose, U(unit)/20 μL). Compounds were added 2 hr before HRV16 infection and 1 hr after infection when non-infected HRV was washed out.

IRF-3 = test: HRV-16 induced activation of IRF-3 in BEAS2B cells; assay type: cell-based, human; conditions: after 2 hr, at 10 MOI
Method: (§1) The cells were then collected by scraping on ice and nuclear extracts were prepared using a nuclear protein extraction kit (ActiveMotif, […], Belgium). NFκB activity and IRF3 activity were then measured using the TransAMTM NFκB (p65) ELISA kit or the TransAMTM IRF3 ELISA kit.

HRV16 [2] = test: Assessment of HRV16 induced CPE in MRC5; assay type: cell-based, human rhinovirus 16; conditions: MRC5 cells; for IC50: Rhinovirus A, 96 h, HRV16 MOI of 1, 4 days, read-out: HRV16-induced CPE IC50 Value
Method: The supernatants were aspirated and fresh media was added and the preparations were then incubated for 4 days. Where appropriate, cells were pre-incubated with the test compound or DMSO for 2 hr, and the compounds and DMSO added again after washout of the virus. Supernatants were aspirated and incubated with methylene blue solution (2% formaldehyde, 10% methanol and 0.175% Methylene Blue) for 2 hr at RT. After washing, 1% SDS was added to each well, and plates were shaken lightly for 1-2 hr prior to reading the absorbance at 660 nm. The percentage inhibition for each well was calculated. The IC50 value was calculated from the concentration-response curve generated from the serial dilutions of the test compound.

IL-8 = IL-8 release activated by human rhinovirus in BEAS2B cells; assay type: cell-based; conditions: Homo sapiens, BEAS-2B; BEAS2B cells, MOI of 5, 72 hr; read-out: HRV16-induced IL-8 IC50 Value
Method: BEAS2B cells were infected with rhinovirus at an MOI of 5 and incubated for 2 hr at 33° C. with gentle shaking to enhance adsorption. Test compounds were added 2 hr before HRV infection and 2 hr after infection when residual extracellular HRV was washed out. The cells were then washed with PBS, fresh media was added and the cells were incubated for a further 72 hr. The supernatant was collected for assay of IL-8 concentrations using the Duoset ELISA development kit (R&D Systems, Minneapolis, Minn.).

ICAM-1 = test: ICAM1 expression activated by human rhinovirus in BEAS2B cells (cell-based ELISA); conditions: for IC50: Homo sapiens, BEAS-2B, HRV16 inoculation (2 hr infection), read-out: HRV16-induced ICAM1 IC50 Value
Method: BEAS2B cells were infected with rhinovirus at an MOI of 5 and incubated for 2 hr at 33° C. with gentle shaking to enhance adsorption. Test compounds were added 2 hr before HRV infection and 2 hr after infection when residual extracellular HRV was washed out. The cells were then washed with PBS, fresh media was added and the cells were incubated for a further 72 hr. The supernatant was collected for assay of IL-8 concentrations using the Duoset ELISA development kit (R&D Systems, Minneapolis, Minn.). […] After appropriate incubation, cells were fixed with 4% formaldehyde in PBS. After quenching endogenous peroxidase by adding 0.1% sodium azide and 1% hydrogen peroxide, wells were washed with buffer (0.05% Tween in PBS: PBS-Tween). After incubation with the blocking solution (5% milk in PBS-Tween for 1 hr), cells were incubated with anti-human ICAM-1 antibody in 5% BSA PBS-Tween (1:500) overnight. Wells were then washed with PBS-Tween and incubated with the secondary antibody (HRP-conjugated anti-rabbit IgG, Dako Ltd.).

NFκB = test: HRV-16 induced activation of NFκB in BEAS2B cells; assay type: cell-based, human; conditions: after 2 hr, at 10 MOI
Method: as §1

HRV16 mRNA = test: Transcripts of HRV16 by PCR in MRC5 cellular extract; assay type: cell-based, human rhinovirus 16; conditions: MRC5 cells, HRV16 0.1 MOI, 3 days
Method: The MRC5 cells infected with virus (as described above) were used for viral RNA or mRNA detection. Total RNA extraction and reverse transcription were performed using TaqMan®Fast Cells-to-CT™ Kit (Ambion Inc. Austin Tex.). The gene transcript level of HRV16 (PrimerDesign Ltd, Southampton, UK), IFN (Applied Biosystems, Warrington, UK) and GAPDH, as a house-keeping gene (PrimerDesign Ltd, Southampton, UK) were quantified by real-time PCR using commercially available primers on a StepOnePlus™ RT-PCR system (Applied Biosystems, Warrington, UK). Variations in cDNA concentrations between different samples were corrected using the housekeeping gene, whereby the GAPDH concentration in each cDNA sample was calculated, and the cDNA diluted to contain equal amounts of GAPDH. Standard curves for GAPDH were generated by performing a dilution series of the untreated control cDNA. The relative amount of gene transcript present after different treatments was calculated and normalized by dividing the calculated value for the gene of interest by that of the house-keeping gene value.

HRV16 [3] = test: HRV-16 infection, assessment of virus load (TCID50) in MRC5 cells; assay type: cell-based, human rhinovirus 16; conditions: pilot studies
rhinovirus = conditions: Jefferson and Tyrrell 2007; cited from earlier work
[4] = listed as Fluticasone propionate

Structure (SMILES)	HRV16-induced CPE (in words) (HRV16 [2])	IC50 (HRV16 [2])	IC50 (IL-8)	further results
Cc1ccc(-n2nc(C(C)(C)C)cc2NC(=O)Nc2ccc(OCCN3CCOCC3)c3ccccc23)cc1 [BIRB-796]				HRV-16 virus load (extracellular) (HRV16 [1]): No effect; IRF-3 activation (HRV-16 induced) (IRF-3): tendency to inhibit
Cc1ccc(-n2nc(C(C)(C)C)cc2NC(=O)Nc2ccc(Oc3ccnc(NC(=O)N4CCCC4)c3)c3ccccc23)cc1 [Example 14, N-(4-(4-(3-(3-tert-Butyl-1-p-tolyl-1H-pyrazol-5-yl)ureido)naphthalen-1-yloxy)pyridin-2-yl)pyrrolidine-1-carboxamide]	inhibited HRV16-induced CPE in MRC5 cells in a concentration-dependent manner	3.3 nM		
Cc1ccc(-n2nc(C(C)(C)C)cc2NC(=O)Nc2ccc(Oc3ccnc(NC(N)=O)c3)c3ccccc23)cc1 [Example 30, 4-(4-(3-(3-tert-Butyl-1-p-tolyl-1H-pyrazol-5-yl)ureido)naphthalen-1-yloxy)pyridin-2-ylurea]	inhibited HRV16-induced CPE in MRC5 cells in a concentration-dependent manner	2.9 nM	0.019 nM	
CNC(=O)Nc1cc(Oc2ccc(NC(=O)Nc3cc(C(C)(C)C)nn3-c3ccc(C)cc3)c3ccccc23)ccn1 [Example 37]	inhibited HRV16-induced CPE in MRC5 cells in a concentration-dependent manner	24 nM	0.12 nM	IC50 (ICAM-1): 0.029 nM
Cc1ccc(-n2nc(C(C)(C)C)cc2NC(=O)Nc2ccc(Oc3ccnc(NC(=O)N4CCOCC4)c3)c3ccccc23)cc1 [Example 43, N-(4-(4-(3-(3-tert-Butyl-1-p-tolyl-1H-pyrazol-5-yl)ureido)naphthalen-1-yloxy)pyridin-2-yl)morpholine-4-carboxamide]	inhibited HRV16-induced CPE in MRC5 cells in a concentration-dependent manner	9.5 nM	0.069 nM	
Cc1ccc(-n2nc(C(C)(C)C)cc2NC(=O)Nc2ccc(Oc3ccnc(NC(=O)N4CCN(C)CC4)c3)c3ccccc23)cc1 [Example 44, N-(4-((4-(3-(3-(tert-Butyl)-1-(p-tolyl)-1H-pyrazol-5-yl)ureido)naphthalen-1-yl)oxy)pyridin-2-yl)-4-methylpiperazine-1-carboxamide]	inhibited HRV16-induced CPE in MRC5 cells in a concentration-dependent manner	16.3 nM	0.041 nM	IC50 (ICAM-1): 0.069 nM
Cc1ccc(-n2nc(C(C)(C)C)cc2NC(=O)Nc2ccc(Oc3ccnc(NC(=O)N(C)C)c3)c3ccccc23)cc1 [Example 45, 3-(4-((4-(3-(3-(tert-Butyl)-1-(p-tolyl)-1H-pyrazol-5-yl)ureido)naphthalen-1-yl)oxy)pyridin-2-yl)-1,1-dimethylurea]	inhibited HRV16-induced CPE in MRC5 cells in a concentration-dependent manner	9.4 nM	0.041 nM	IC50 (ICAM-1): 0.098 nM
Cc1ccc(-n2nc(C(C)(C)C)cc2NC(=O)Nc2ccc(Oc3ccnc(NC(=O)N4CC[C@@H](N(C)C)C4)c3)c3ccccc23)cc1 [Example 55, (R)-N-(4-(4-(3-(3-tert-Butyl-1-p-tolyl-1H-pyrazol-5-yl)ureido)naphthalen-1-yloxy)pyridin-2-yl)-3-(dimethylamino)pyrrolidine-1-carboxamide]	inhibited HRV16-induced CPE in MRC5 cells in a concentration-dependent manner	14.3 nM		
COc1cc(Nc2ncc(F)c(Nc3ccc4c(n3)NC(=O)C(C)(C)O4)n2)cc(OC)c1OC [Example R-406]				NFκB activation (HRV-16 induced) (NFκB): inhibited
CCC(=O)O[C@]1(C(=O)SCF)[C@H](C)C[C@H]2[C@@H]3C[C@H](F)C4=CC(=O)C=C[C@]4(C)[C@@]3(F)[C@@H](O)C[C@@]21C [fluticasone propionate]				HRV16 mRNA detected in cellular extracts (HRV16 mRNA): without effect; ICAM-1 expression induced by HRV16 inoculation (in words) (ICAM-1; 2 hr infection): much more modest; Concentrations at which concentration-dependent effects on ICAM-1 are apparent, relative to Reference Compound 2 (ICAM-1; results not shown): 10,000 fold; HRV-16 virus load (extracellular) (HRV16 [1]): without effect; HRV-16 virus load (extracellular) (HRV16 [1]; [4]): No effect; IRF-3 activation (HRV-16 induced) (IRF-3): tendency to inhibit; NFκB activation (HRV-16 induced) (NFκB): no clear effect; NFκB activation (HRV-16 induced) (NFκB; [4]): No effect
Cc1cc(CCCOc2c(C)cc(-c3noc(C(F)(F)F)n3)cc2C)on1 [pleconaril]				HRV16 mRNA detected in cellular extracts (HRV16 mRNA): clearly inhibits; Effect of treatment time versus the point of inoculation with HRV16 (HRV16 [3]): essentially only effective if the drug was administered prior to infection; Activity against rhinovirus infections in clinical development (rhinovirus): active against rhinovirus infections; HRV-16 virus load (extracellular) (HRV16 [1]): clearly inhibits
